Test results taken from patent US4606911A, “Pharmaceutical composition for the prevention of dental caries” (Rohto Pharmaceutical Co. Ltd., priority 1984, dated 1986).

Assays:
[1] = test system: Bacillus megaterium QM B1551; assay: Antibacterial activity (MIC, growth in BHI medium); format: cell-based; parameters: key to Antibacterial activity (growth): -: grow; ±: slightly grow; +: not grow
Description: (§1) To a test tube was charged 3.8 ml of Brain Heart Infusion (BHI) medium, and 100 μl of a sample solution containing oleanolic, ursolic or glycyrrhetic acid and 100 μl of pre-incubated culture of bacterium selected from those listed below were added thereto. The mixture was incubated at 37° C. and then allowed to stand over night. The extent of the growth of bacterium was observed after two or five days. The MIC value was determined for each sample and summarized in Table 2. |Bacillus megaterium QM B1551

Esherichia coli K12 = assay: Antibacterial activity (MIC, growth in BHI medium); format: cell-based; parameters: key to Antibacterial activity (growth): -: grow; ±: slightly grow; +: not grow
Description: as §1, with “days.” for “days. The MIC value was determined for each sample and summarized in Table 2. |Bacillus megaterium QM B1551”
Esherichia coli K12 (Gram negative)

CC1(C)CC[C@]2(C(=O)O)CC[C@]3(C)C(=CC[C@@H]4[C@@]5(C)CC[C@H](O)C(C)(C)[C@@H]5CC[C@]43C)[C@@H]2C1 [Oleanolic acid]
Antibacterial activity (growth) ([1]; 10 μg/ml): -
Antibacterial activity (growth) ([1]; 25 μg/ml): -
Antibacterial activity (growth) ([1]; 50 μg/ml): -
Antibacterial activity (growth) ([1]; 100 μg/ml): -
Antibacterial activity (growth) ([1]; 200 μg/ml): -
Antibacterial activity (growth) ([1]; 400 μg/ml): -
MIC ([1]; Priestia megaterium, QMB1551, Bacillus megaterium, BHI, 37° C., read-out: MIC (minimum inhibitory concentration)): > 400 µg/mL
Antibacterial activity (growth) (Esherichia coli K12; 10 μg/ml): -
Antibacterial activity (growth) (Esherichia coli K12; 25 μg/ml): -
Antibacterial activity (growth) (Esherichia coli K12; 50 μg/ml): -
Antibacterial activity (growth) (Esherichia coli K12; 100 μg/ml): -
Antibacterial activity (growth) (Esherichia coli K12; 200 μg/ml): -
Antibacterial activity (growth) (Esherichia coli K12; 400 μg/ml): -
MIC (Esherichia coli K12; Esherichia coli, BHI, 37° C., read-out: MIC (minimum inhibitory concentration)): > 400 µg/mL
